Experimental data from US10526329B2 (Galapagos NV, priority 2013, dated 2020).

What was measured:
[1] = system: TS-exposed female C57BL/6J mice; experiment: Tobacco smoke (TS) model, lungs inflammatory cells recruitment; format: in vivo, mouse; details: days 6 to 11, TS-exposed mice
Description: The aim of this experiment is to evaluate the efficacy and potency of a test compound administered p.o., once or twice daily on days 6 to 11, vs reference compounds, on pulmonary inflammation induced by 11 days of TS-exposure in female C57BL/6J mice, by assessing the effect of a test compound on the tobacco smoke induced recruitment of inflammatory cells to the lungs.
The test compounds are formulated in PEG200/0.5% methylcellulose (25/75, v/v) and are given at a dose volume of 10 mL/kg. Roflumilast and Dexamethasone are included as positive […] control, respectively. Each treatment group consists of 10 mice.
A first group of mice is subjected to daily TS-exposure for 5 consecutive days and sacrificed on the day 6, 24 h after the final TS-exposure.
A second group is exposed to air for 5 consecutive days (sham exposure) and sacrificed on the day 6, 24 h after the final air-exposure.
Compound and reference-treated groups are subjected to daily TS-exposure for 11 consecutive days and sacrificed on the day 12, 24 h after the final TS-exposure. Mice are dosed p.o. on days 6 to 11, twice daily, 1 h prior to and 6 h after each TS-exposure, with either vehicle, or the test compound at 3, 5, 10 or 30 mg/kg. Another group is dosed p.o. on days 6 to 11, once daily, 1 h prior to each TS-exposure, with either vehicle, or the test compound at 10 mg/kg.
An additional group is dosed p.o., once daily, on days 6 to 11, with roflumilast at 5 mg/kg, 1 h prior to each TS-exposure. Dexamethasone is dosed p.o., twice daily, on days 6 to 11, at 0.3 mg/kg, 1 h prior to and 6 h after each TS-exposure.
For each mouse, a BAL is performed using 0.4 mL of PBS. The lavage fluid is centrifuged, the supernatant removed and the resulting cell pellet re-suspended for total cell counts and cytospin slide preparation. […]
The lungs are dissected out and the left lobes are removed, snap-frozen and stored at −80° C. […] Cell data are presented as individual data points for each animal and the mean value calculated for each group. […]
Percentage inhibitions for the cell data are calculated using the formula below: […]

hENPP2 = hENPP2 (Homo sapiens (Human), UniProt Q13822); experiment: hENPP2 biochemical assay, LPC as substrate
Description: The principle of the assay consists in quantifying the released choline with an enzymatic method using choline oxidase and peroxidase. Choline oxydation by choline oxydase releases betaine and peroxide. The latter is quantified in presence of HRP that converts the peroxide detection agent TOOS and 4-aminoantipyrine into quinoneimine dye. The appearance of quinoneimine dye is measured spectrophotometrically at 555 nm and is proportional to the amount of choline released by ENPP2. Inhibition of ENPP2 will result in a decrease of the signal.
Compound IC50 values are determined in a hENPP2 (UniProtKB/SwissProt Sequence ref Q13822) biochemical assay using LPC as substrate.
The enzyme is diluted in 50 mM Tris-HCl pH 8.5, 500 mM NaCl, 5 mM KCl, 10 mM CaCl2, 0.1% fatty acid free BSA in a total volume of 10 μL. the reaction is started by the addition of 10 μL of 150 μM LPC (palmitoyl 16:0) diluted in the same buffer as described above and the mixture is incubated at 37° C. for 30 min. The reaction is terminated and choline quantified by the addition of a 25 μL of a mixture containing 0.6 U/mL of choline oxidase, 0.6 U/mL of peroxydase, 1.8 mM TOOS, 1.2 mM amino-antipyrine, 20 mM EGTA (stop-developer solution) diluted in the buffer described above. […] is read on the Envision after an incubation of 30 min at room temperature (Excitation 555 nm, excitation light=70%).

Structure (SMILES)	number of cells recovered in the BALF, in particular macrophage cells, epithelial cells, and neutrophils ([1]; 10 mg/kg twice daily p.o.)	IC50 (hENPP2) [nM]	number of cells recovered in the BALF, in particular macrophage cells, epithelial cells, and neutrophils ([1]; 3 mg/kg twice daily p.o.)
CCc1nc2c(F)cc(N3CCN(CC(=O)N4CC(O)C4)CC3)cn2c1N(C)c1nc(-c2ccc(F)cc2)c(C#N)s1 [Compound 12, 2-((2-ethyl-8-fluoro-6-(4-(2-(3-hydroxyazetidin-1-yl)-2-oxoethyl)piperazin-1-yl)imidazo[1,2-a]pyridin-3-yl)(methyl)amino)-4-(4-fluorophenyl)thiazole-5-carbonitrile]	significantly inhibited	–	–
CCc1nc2ccc(C3CCN(C4=NCC(CO)O4)CC3)cn2c1N(C)c1nc(-c2ccc(F)cc2)cs1 (stereo not shown) [Compound 222]	–	500 to 1000	–
CCc1nc2c(C)cc(N3CCN(CC(=O)N4CC(O)C4)CC3)cn2c1N(C)c1nc(-c2ccc(F)cc2)c(C#N)s1 [Compound 2, 2-((2-ethyl-6-(4-(2-(3-hydroxyazetidin-1-yl)-2-oxoethyl)piperazin-1-yl)-8-methylimidazo[1,2-a]pyridin-3-yl)(methyl)amino)-4-(4-fluorophenyl)thiazole-5-carbonitrile]	significantly inhibited	–	significantly inhibited
